Test system: IL 1-induced release of neutral protease from rabbit articular chondrocytes
Test: Inhibition of the IL 1-induced release of neutral protease from rabbit articular chondrocytes (azocoll neutral protease assay)
Type: cell-based
Settings: Oryctolagus cuniculus, Chondrocyte, purified human IL 1, 24 h after IL 1 stimulation, read-out: % Inhibition (S.D)
Protocol: The ability of the compounds of the inventions to inhibit interleukin 1 is measured by the ability of the test compounds to inhibit the IL 1-induced release of neutral protease from rabbit articular chondrocytes.
This assay is carried out as follows:
Isolation of rabbit chondrocytes:
Male New Zealand White rabbits are anesthetized with 50 mg/kg of ketamine (i.m.) and killed by an intracardiac injection of 3 mls. of Nembutal. The knee joints of both legs are resected and the articular surfaces are exposed. Cartilage slices are obtained using a scalpel and are placed in a tissue culture dish (100 mm diameter) containing 10 mls of Hank's balanced salt solution (HBSS). The chondrocytes within the cartilage slices are then liberated by a series of enzyme digestions. The slices are incubated for 10 min. at 37° C. in 0.05% hyaluronidase (Sigma H-3884), rinsed with HBSS and incubated with 0.2% trypsin (Sigma T-2395) for 10 min. at 37° C. The slices are rinsed again and incubated for 10 mins. at 37° C. with 1.2% collagenase (Sigma C-5138). The slices are then rinsed again with HBSS and resuspended in 10 ml of Ham's F-12 medium containing 10% fetal bovine calf cerum (FCS) and 0.2% collagenase and incubated overnight at 37° C. in a 5% CO2 incubator. The next day, the medium containing the digested cartilage fragments and liberated chondrocytes is transferred to a 15 ml centrifuge tube and the cells are collected by centrifugation and washed twice and resuspended in Ham's F-12 medium. The cells are then plated into 24-well tissue culture plates (2×10^5 cells/well) and incubated at 37° C. until confluent (usually 4-6 days).
Stimulation of chondrocytes and drug treatment:
The confluent chondrocytes are rinsed twice with serum-free Ham's F-12 medium and 1 ml is added to each well. Fifty μl of purified human IL 1 (100 Units/ml; Genzyme Corporation, Boston, MA) is then added to stimulate these cells to secrete neutral protease. To measure drug effects, the cells are treated with test compound 10 min. prior to addition of IL 1. The standard screening dose is 10 μM. Twenty-four hours after IL 1 stimulation, supernatant fluids are collected and assayed for neutral protease activity.
The neutral protease activity of chondrocyte supernatant fluids is determined by their ability to degrade an insoluble protease substrate, azocoll (Sigma). Supernatants are treated for 10 min. at room temperature with 350 μM p-aminophenylmurcuric acetate to activate the latent enzyme. Three hundred μl of supernatant is then mixed with 500 μl of a 20 mg/ml suspension of azocoll and incubated at 37° C. for 18-24 hrs. with gentle rocking. The mixtures are centrifuged and the amount of substrate hydrolyzed is determined by measuring the absorbance of the supernatant at 520 nm.
Drug effects are calculated as the % change in enzyme activity (absorbance)by supernatants from drug-treated chondrocytes relative to enzyme activity of supernatants from vehicle-treated chondrocytes as follows: [formula]

Row | Structure (SMILES) | inhibition at 10 µM [%] | inhibition at 0.1 µM [%] | inhibition at 1 µM [%]
1 | N#Cc1ccc(N2CCc3nc4cc(Cl)ccc4c(Cl)c3C2)cc1 [Example 1, 4-(7,10-Dichloro-3,4-dihydrobenzo[b][1,6]naphthyridin-2(1H)-yl)benzonitrile] | 22 ± 1 |  | 
2 | CCOC(=O)c1ccc(N2CCc3nc4cc(Cl)ccc4c(Cl)c3C2)cc1 [Example 2, 4-(7,10-Dichloro-3,4-dihydrobenzo[b][1,6]naphthyridin-2(1H)-yl)benzoic acid ethyl ester] | 35 ± 16 |  | 
3 | CS(=O)(=O)c1ccc(N2CCc3nc4cc(Cl)ccc4c(Cl)c3C2)cc1 [Example 3, 7,10-Dichloro-1,2,3,4-tetrahydro-2-(4-methylsulfonyl)phenylbenzo[b][1,6]naphthyridine] | 62 ± 2 | 69 ± 1 | 66 ± 1
4 | Fc1ccc(N2CCc3nc4cc(Cl)ccc4c(Cl)c3C2)cc1 [Example 4, 7,10-Dichloro-2-(4-fluorophenyl)-1,2,3,4-tetrahydrobenz[b][1,6]naphthyridine] | 76 ± 29 |  | 9 ± 20
5 | N#Cc1ccc(N2CCc3nc4ccccc4c(Cl)c3C2)cc1 [Example 5, 4-(10-Chloro-3,4-dihydrobenzo[b][1,6]naphthyridine-2(1H)-yl)benzonitrile, hemihydrate] | 66 ± 29 |  | 
6 | CCOC(=O)c1ccc(N2CCc3nc4ccccc4c(Cl)c3C2)cc1 [Example 8, 4-(10-Chloro-3,4-dihydrobenzo[b][1,6]naphthyridin-2(1H)-yl)benzoic acid ethyl ester] | 91 | 40 | 43
7 | N#Cc1ccc(N2CCc3nc4ccc(Cl)cc4c(Cl)c3C2)cc1 [Example 9, 4-(8,10-Dichloro-3,4-dihydrobenzo[b][1,6]naphthyridin-2(1H)-yl)benzonitrile, 1/4 hydrate] | 86 |  | 43
8 | Cc1ccc2c(Cl)c3c(nc2c1)CCN(c1ccc(C#N)cc1)C3 [Example 10, 4-(10-Chloro-3,4-dihydro-7-methylbenzo[b][1,6]naphthyridin-2(1H)-yl)benzonitrile, 1/5 ethyl acetate] | 33 |  | 
9 | N#Cc1ccc(N2CCc3nc4cc(F)ccc4c(Cl)c3C2)cc1 [Example 11, 4-(10-Chloro-7-fluoro-3,4-dihydrobenzo[b][1,6]naphthyridin-2(1H)-yl)benzonitrile, 1/4 hydrate] | < 20 |  | 
10 | N#Cc1ccc(N2CCc3nc4cc(Cl)ccc4c(NNc4ccccc4)c3C2)cc1 [Example 12, 4-[7-Chloro-3,4-dihydro-10-(2-phenylhydrazino)benzo[b][1,6]naphthyridin-2(1H)-yl]benzonitrile, hydrate] | 69 |  | 

From patent US4808612A, “2-Arylbenzo(b)(1,6)naphthyridines as inhibitors of interleukin 1” (American Home Products Corporation, priority 1987, dated 1989)
